From US9662371B2, “Treatment of autism and similar disorders” (Neuropharmacology Services, LLC, priority 2002, dated 2017)

Experiments:
[1] = system: adult patients diagnosed with autism or Asperger's disorder; assay: Oxytocin vs placebo 4-hour intravenous infusion challenge, rating of six repetitive behaviors; type: in vivo, human
From the text: To evaluate the role of oxytocin in treating autism spectrum disorders, fifteen adult patients (mean age=32.9 years, range=19.4-55.6) (14 male, 1 female) diagnosed with autism (N=6) or Asperger's disorder (N=9) received oxytocin and placebo challenges during visits separated by 2-3 weeks to the General Clinical Research Center of the Department of Psychiatry, Seaver Autism Research Center at the Mount Sinai School of Medicine (New York, N.Y.).
Patients and their guardians signed written informed consent agreements, and the study was carried out in accordance with the Declaration of Helsinki as adopted and promulgated by the National Institutes of Health. All patents were medically healthy, without a current or past history of schizophrenia, psychotic disorders, substance abuse, other Axis I mental disorders, or seizure disorders. Patients were of average intelligence, with a mean IQ (±SD) of 90.33 (±9.90) (range=74-110). Nine patients were medication free for greater than one year prior to the study; three patents were medication free for greater than six weeks prior to the study (one was previously on fluoxetine, one on sertraline and one on bupropion); and the remaining three patents were medication free for a minimum of two weeks prior to and throughout the study (one was previously on fluvoxamine and risperidone, one on sertraline and one on clonazepam).
Each individual subject underwent two identical challenge days in which they received a continuous infusion over 4 hours of synthetic oxytocin (Pitocin®) or placebo.
(§1) All subjects were admitted into the General Clinical Research Center on the evening prior to each challenge. Following an overnight fast, the subject was awakened at 8:00 AM and an indwelling intravenous catheter inserted. At 8:30 AM vital signs were taken, and these continued to be monitored every half-hour. At 9:00 AM, 6 cc of blood were drawn and the oxytocin/placebo infusion was administered in a randomized double-blind fashion. The initial vial of Pitocin® (10 u/mL) combined aseptically with a 1.0 L bag of normal saline was first given at a rate of 10 mL/hr which is equivalent to a dose rate of 0.1 units/hour. The infusion was initiated at a low rate to minimize potential side effects, and the rate gradually titrated up. Specifically, the dose rate was titrated every 15 minutes by 25 mL/hour in the first hour, 50 mL/hour in the second hour, 100 mL/hour in the third hour, and held constant at the maximum rate of 700 mL/hr during the fourth hour. This created a range of dosing from 0.1 U/hour to 7 U/hour. See below:
The combined solution, rotated in an infusion bottle to insure thorough mixing, was added to the system by a constant infusion pump to accurately control the rate of infusion.
(§2) Staff members were given specific instructions to discontinue increasing the rate of infusion if the patient experienced significant side effects. In order to assess possible cardiovascular effects, blood pressure and pulse were recorded every half hour. Oral temperature was recorded every hour. All fifteen subjects returned in 2-3 weeks for an identical challenge administered with the other infusion substance.
Severity of repetitive autistic behaviors was evaluated using a method developed during past research with the autistic population. Six behaviors were assessed: need to know, repeating, ordering, need to tell/ask, self-injury, and touching. The ratings were completed at baseline (O), 60, 120, 180, and 240 minutes and reported. The frequency of each of the six repetitive behaviors was recorded using a four point ordinal scale with the following values: 0=never, 1=rarely, 2=sometimes, 3=constantly. These ratings were done following a 15 to 20 minute interview during which several other measures were administered and the rater had the opportunity to observe the patient's behavior in this domain. […]

[2] = system: adult patients diagnosed with autism or Asperger's disorder; assay: Side effects and vital signs (blood pressure, pulse, oral temperature) during the oxytocin infusion challenge; type: in vivo, human
Description: as §1, §2
A repeated measure analysis of variance (ANOVA) was conducted looking at the two infusions (oxytocin vs. placebo) over time (0, 60, 120, 180 and 240 minutes). A logarithmic transformation was done for the repetitive behavior ratings because the data were not normally distributed. Baseline differences on the oxytocin vs. placebo days were examined using paired sample t-tests. Differences in response between patients with autism and patients with Asperger's disorder were examined using independent sample t-tests. […]

[3] = baseline (0) to endpoint (240 minutes), 15 patients, FIG. 2

CC[C@H](C)[C@@H]1NC(=O)[C@H](Cc2ccc(O)cc2)NC(=O)[C@@H](N)CSSC[C@@H](C(=O)N2CCC[C@H]2C(=O)N[C@@H](CC(C)C)C(=O)NCC(N)=O)NC(=O)[C@H](CC(N)=O)NC(=O)[C@H](CCC(N)=O)NC1=O [oxytocin]
individual dimensions of repetitive behavior, oxytocin versus placebo infusions over time ([1]; ANOVA of individual items, at p<0.05): no significant differences
main effect for drug on repetitive behaviors ([1]; ANOVA, F=1.835, df=1, 13, p=0.199): no significant main effect
total number of repetitive behaviors observed following administration ([1]; autistic study group, FIG. 1 (dashed line)): appears to decrease
patients with an increase in repetitive behaviors [1, 3]: 1 patient
patients with no change in repetitive behaviors [1, 3]: 1 patient
response of patients with autism versus patients with Asperger's disorder following oxytocin infusion ([1]; independent sample t-test, t=0.687, df=13, p=0.504): did not differ
number of different types of repetitive behavior at endpoint ([1]; individuals who responded to oxytocin, endpoint (240 minutes)): none or one
reduction in repetitive behaviors over time following oxytocin compared to placebo ([1]; repeated measures ANOVA, 0-240 min, drug×time interaction F=3.487, df=4, 52, p=0.027, FIG. 1): significantly greater reduction
touching behavior, oxytocin versus placebo over time ([1]; time×drug interaction F=2.444, df=4, 52, p=0.093 (p<0.10)): directional difference
repeating behavior, oxytocin versus placebo over time ([1]; time×drug interaction F=2.70, df=4, 52, p=0.086 (p<0.10)): directional difference
effects of infusion on blood pressure, pulse, or temperature ([2]; 4-hour infusion, 0.1 U/hour to 7 U/hour): no significant effects
side effects ([2]; 4-hour infusion, drowsiness, anxiety, depression, headache, tingling, backache, trembling, restlessness, stomach cramps, enuresis): mild
relationship between presence or number of side effects and behavioral response ([2]; chi square analysis): no relationship
